The text below walks through data of patent publication US4542153A, “Methods for changing calcium metabolism within the cells of a mammal” (The Ohio State University Research Foundation, priority 1983, dated 1985).

Entries after “also recorded” stand apart in the source; their conditions may differ.

In one test the test system is isolated left atria. The test can be described thus: Effects on isolated guinea pig atria: electrically driven left atria. It is filed as cell-based. From the text:
The effects of pr-MDI, bu-MDI and Q-bu-MDI on the mechanical and electrical behavior of isolated guinea pig atria were investigated by the method of H. Nawrath, J. Pharmacol. Exp. Ther., 16, 176-182 (1980). The compounds were investigated over the concentration range of 10^-8 to 3×10^-4 M.
English short-haired guinea pigs, supplied by Carr Animal Supply, of Powell, Ohio, weighing 300-600 g. were killed by a blow on the head and both atria of the animal were quickly dissected out and suspended in a water-jacketed organ bath containing Krebs-Henseleit solution through which a 95% oxygen/5% carbon dioxide mixture was bubbled at 32° C. The solution contained 6.92 g/l of sodium chloride, 0.35 g/l of potassium chloride, 0.29 g/l of magnesium […] heptahydrate, 0.3 g/l of calcium chloride dihydrate, 0.16 g/l of potassium dihydrogen phosphate, 2.1 g/l of sodium bicarbonate and 2.1 g/l of dextrose. The contractile force generated by the isolated artria was recorded isometrically under a 500 mg. preload using a Narco Biosystems force transducer connected to a physiograph DMP-4B recorder, both the transducer and the recorder being obtained from E & M Instrument Co. of Houston, Texas.
The isolated left atria were electrically driven by square wave impulses of 3 milliseconds duration at a frequency of 3 Hz. and a voltage of twice the threshold voltage, delivered by a Grass S9 stimulator obtained from Grass Instrument Co., of Quincy, Massachusetts. Two platinum electrodes were used for the stimulation, the anode being in direct contact with the atrial tissue while the cathode had the form of a ring suspended 2.5 centimeters above the anode. Before redetermination of the threshold voltage and generation of a predrug (control) frequency-force profile over the range of 1-5 Hz., an equilibriation time of one hour was allowed. The system was then re-equilibriated at 3 Hz. and twice the threshold voltage as before, then one cumulative dose-response curve of contractile force for one test compound was obtained, followed immediately by redetermination of the threshold voltage and the generation of a post-drug frequency-force profile.
A paired Student's t-test was used to compare predrug and postdrug threshold voltages for each left atrial preparations as well as to compare developed tension at each frequency in the profile of each left atrial preparation. P values of less than 0.05 were considered statistically significant.

The subject of a further test is arrhythmia in mammals. Particulars: in vivo.

For the molecule `CCCCC1=Cc2cc3c(cc2C1[N+](C)(C)C)OCO3.[I-]` (centres unmarked) [Q-bu-MDI, 2-Butyl-5,6-methylenedioxyindene-1-trimethylammonium iodide], in the test with isolated left atria (3×10^-4 M), the “effect on frequency-force profile/relation of the stimulated left atrium” value was “no significant effect”, the “effect on the contractile force of left atrium at the highest concentration” value is recorded as “partially reversed” and the “effect on threshold voltage required to drive the atria” value is listed as “no significant effect upon the threshold voltage”. Also, the “dose-dependent decrease in the contractile force of the electrically stimulated left atrium” value in the test with isolated left atria (10^-4 M, 100 µM) is no more than 20%. Moreover, in the test on isolated left atria (10^-8 to 3×10^-4 M), the “effect on contractile force of the electrically stimulated left atrium” value is “very modest; also recorded: much less than the other two compounds”; the “overall effect on mechanical and electrical behavior of atria” value is “much smaller than that of bu-MDI or pr-MDI”. The “persistent effects on frequency-force relation and threshold voltage” value in the test with isolated left atria (maximum concentration 3×10^-4 M) was “did not produce any persistent effects”. Besides, in the test on arrhythmia in mammals, the “effectiveness relative to tertiary analog (bu-MDI), average over tests” value is “about four”.
